Source: patent publication US7563819B1, “Esters of 5-aminolevulinic acid as photosensitizing agents in photochemotherapy” (Photocure ASA, priority 2000, dated 2009)
“Also recorded” adds a separate entry of the source.

Tests used:
[1] = system: murine skin; assay: Porphyrin formation (skin fluorescence) after topical application onto murine skin; type: in vivo, Female Balb/c athymic nude mice; conditions: topical cream on nude mouse skin, 1% (w/w), except compounds 16, 29, 30, 31 at 3% and 17-19 at 10%
Description: The test compounds were formulated in Unguentum Merck (cream base available from Merck, consisting of silicon dioxide, paraffin liq., vaseline, album, cetostearol, polysorbat. 40, glycerol monostearate, Miglyol®812 (a mixture of plant fatty acids), polypropyleneglycol, and purified water) to the desired concentration. Concentrations are given as % (w/w) calculated as hydrochlorides. The formulations were prepared the day before the experiment commenced and stored in the refrigerator until the day of use.
Female Balb/c athymic nude mice, weighing about 22 g, obtained from the Department of Laboratory Animals, The Norwegian Radium Hospital (Montebello, Oslo, Norway) were used in the studies.
Three mice per group was used. Each mouse received 0.05-0.1 g of formulation topically applied at the right flank of the body, evenly distributed and covered with a dressing (Opsite Flexigrid; Smith and Nephew Medical Ltd., Hull, England). The fiber point measuring device consisted of a bundle of optical fibers connected to a spectrofluorimeter which produced the excitation light of 407 nm. The excitation light, which is able to penetrate 0.1-0.5 mm into the tissue, was led through half of the fibers to the mouse skin. The resulting emission fluorescence spectrum (550-750) nm was collected and led through the remaining fibers into a photomultiplier for quantification.
After application of the cream formulation, the fluorescence spectrum from porphyrins in the skin was measured by the fiber-optical method at different intervals of time after administration.
The fluorescence intensity varied from experiment to experiment. Therefore 1% (w/w) hexyl 5-aminolevulinate-HCl was included in each experiment as an internal control.

[2] = system: WiDr cells; assay: Measurement of porphyrin formation in cell culture in vitro; type: cell-based; conditions: 4 h incubation; for POTENCY (Relative ability to induce porphyrin formation): 0.001-1 mM, relative to ALA = 1; for ALA concentration giving the same porphyrin formation as 0.001 mM ester: ester at 0.001 mM; for potency in inducing cellular porphyrin formation relative to ALA: fold versus ALA
Description: The test compounds were dissolved in DMSO to a concentration of 100 mM (stock solution). Appropriate concentrations were obtained by dilution of the stock solutions with phosphate-buffered saline (PBS) or culture medium.
WiDr cells, derived form a primary adenocarcinoma of the rectosigmoid colon, were subcultured in RPMI 1640 medium (Gibco) containing 10% fetal calf serum, 100 U/ml penicillin, 100 μg/ml streptomycin and 1% glutamine. Cells were split 1:100 twice a week, and maintained at 37° C. and 5. % CO2 in a humid environment.
5×10^5 WiDr cells in 2 ml of RPMI medium as described in the previous paragraph were added to each well in 6-well plastic tissue-culture plates (Nunc) and left for 48 hr at 37° C. and 5% CO2 in a humid environment for proper attachment to the substratum. The cells were then washed twice with RPMI 1640-medium without serum, followed by the addition to the wells of the appropriate dilutions of the test compounds in 2 ml of fresh culture medium to final concentrations of 0.001, 0.01, 0.1 and 1 mM in duplicate. The cells were incubated at 37° C. for four hours.
After treatment as described in the paragraph “treatment conditions” the cells were washed twice with PBS and brought into a solution of 1M HClO4 in 50% MeOH by scraping the cells off the substratum by means of a Costar cell scraper. Cell debris was removed by centrifugation. The porphyrin content of each sample was determined fluorometrically using a Perkin Elmer LS50B spectrofluorimeter (excitation at 407 nm, emission was measured at 606 nm using a long pass cut-off filter (530 nm) on the emission side). The fluorescence in each sample was calculated relative to the protein content in control cells as measured by the Bradford method.

SMILES	skin fluorescence level after topical application [1]	POTENCY (Relative ability to induce porphyrin formation) [2]	potency in inducing cellular porphyrin formation relative to ALA [2]	further results
Cl.NCC(=O)CCC(=O)OCc1ccc(F)cc1 [Compound 15, 4-Fluorobenzyl 5-amino-4-oxopentanoate Hydrochloride]	Slightly lower levels	–	–	–
Cl.NCC(=O)CCC(=O)OCCc1ccccc1 [Compound 5, 2-Phenylethyl 5-amino-4-oxopentanoate Hydrochloride]	–	500	–	efficiency in inducing cellular porphyrin synthesis compared with ALA [2]: considerably more efficient than ALA; ALA concentration giving the same porphyrin formation as 0.001 mM ester [2]: 0.4 mM; skin fluorescence level after topical application ([1]; Hydrochloride): low levels of fluorescence; skin fluorescence level after topical application ([1]; listed as 2-phenyl-ethyl 5-aminolevulinate, Hydrochloride): relatively modest fluorescence levels
Cl.NCC(=O)CCC(=O)OC1CCCCC1 [Compound 7, Cyclohexyl 5-amino-4-oxopentanoate Hydrochloride]	low levels of fluorescence	1	–	efficiency in inducing porphyrin formation compared with ALA ([2]; at higher concentrations): less effective than ALA; efficiency in inducing porphyrin formation compared with ALA ([2]; at low concentrations): only slightly more efficient than ALA
CCCC(C)COC(=O)CCC(=O)CN.Cl (stereo not shown) [Compound 13, 2-Methyl-1-pentyl 5-amino-4-oxopentanoate Hydrochloride]	gave porphyrin formation	–	–	–
Cl.NCC(=O)CCC(=O)OCc1c(F)c(F)c(F)c(F)c1F [Compound 18, 2,3,4,5,6-Pentafluorobenzyl 5-amino-4-oxopentanoate Hydrochloride]	intermediate/high activities	–	–	–
CC(=O)OC(C)OC(=O)NCC(=O)CCC(=O)OCc1ccccc1 (stereo not shown) [Compound 30, Benzyl 5-[[1-(acetyloxy)ethoxy]carbonyl]amino-4-oxopentanoate]	intermediate/high fluorescence	–	–	–
Cl.NCC(=O)CCC(=O)OCc1ccc([N+](=O)[O-])cc1 [Compound 11, 4-Nitrobenzyl 5-amino-4-oxopentanoate Hydrochloride]	high levels of fluorescence	200	approximately 200 times	–
CCCCC(C)OC(=O)CCC(=O)CN.Cl (stereo not shown) [Compound 1, 1-methyl-pentyl 5-amino-4-oxopentanoate Hydrochloride]	intermediate fluorescence levels	3	–	efficiency in inducing porphyrin formation compared with ALA ([2]; at low concentrations): only slightly better than ALA
Cl.NCC(=O)CCC(=O)OCc1ccc(-c2ccccc2)cc1 [Compound 27, 4-Diphenylmethyl 5-amino-4-oxopentanoate Hydrochloride]	relatively low fluorescence	–	–	–
Cl.Cl.NCC(=O)CCC(=O)OCc1cccnc1 [Compound 26, 3-Pyridinylmethyl 5-amino-4-Oxopentanoate Dihydrochloride]	intermediate fluorescence	–	–	–
Cl.NCC(=O)CCC(=O)OCc1ccccc1F [Compound 17, 2-Fluorobenzyl 5-amino-4-oxopentanoate Hydrochloride]	intermediate/high activities	–	–	–
CC(C)CCCOC(=O)CCC(=O)CN.Cl [Compound 8, 4-Methyl-1-pentyl 5-amino-4-oxopentanoate Hydrochloride]	high fluorescence levels	100	approximately 100 times	–
CCCC(CC)OC(=O)CCC(=O)CN.Cl (stereo not shown) [Compound 12, 3-Hexyl 5-amino-4-oxopentanoate Hydrochloride]	gave porphyrin formation	–	–	–
NCC(=O)CCC(=O)O [ALA, 5-aminolevulinic acid]	–	1	–	–
Cl.NCC(=O)CCC(=O)OCCCCc1ccccc1 [Compound 14, 4-Phenyl-1-butyl 5-amino-4-oxopentanoate Hydrochloride]	only low fluorescence levels	–	–	–
CCCCCCOC(=O)CCC(=O)CN.Cl [Compound 6, hexyl 5-aminolevulinate-HCl, reference compound]	highest fluorescence; also recorded: high and similar levels of fluorescence	100	approximately 100 times	–
Cl.NCC(=O)CCC(=O)OCc1ccccc1 [Compound 4, Benzyl 5-amino-4-oxopentanoate hydrochloride]	high levels of fluorescence	100-600	–	efficiency in inducing cellular porphyrin synthesis compared with ALA [2]: considerably more efficient than ALA; ALA concentration giving the same porphyrin formation as 0.001 mM ester [2]: 0.6 mM
CC(C)c1ccc(COC(=O)CCC(=O)CN)cc1.Cl [Compound 2, 4-Isopropylbenzyl 5-amino-4-oxopentanoate Hydrochloride]	intermediate levels of fluorescence	200	approximately 200 times	–
Cl.NCC(=O)CCC(=O)OCc1ccc(C(F)(F)F)cc1 [Compound 9, 4-(Trifluoromethyl)benzyl 5-amino-4-oxopentanoate Hydrochloride]	high fluorescence levels	200	approximately 200 times	–
COc1ccc(COC(=O)CCC(=O)CN)cc1.Cl [Compound 28, 4-Methoxybenzyl 5-amino-4-oxopentanoate Hydrochloride]	intermediate fluorescence	–	–	–
CC(C)(C)c1ccc(COC(=O)CCC(=O)CN)cc1.Cl [Compound 10, 4-t-Butylbenzyl 5-amino-4-oxopentanoate Hydrochloride]	Intermediate fluorescence levels	200	approximately 200 times	–
Cl.NCC(=O)CCC(=O)OCc1ccc(Cl)cc1 [Compound 19, 4-Chlorobenzyl 5-amino-4-oxopentanoate Hydrochloride]	high fluorescence levels	–	–	–
Cc1ccc(COC(=O)CCC(=O)CN)cc1.Cl [Compound 3, 4-Methylbenzyl 5-amino-4-oxopentanoate Hydrochloride]	high and similar levels of fluorescence	200	approximately 200 times	–
